System: yeast genes (level of expressed mRNA)
Experiment: DNA chip analysis of expressed mRNA of yeast genes after 2 h culture with a toxic chemical substance
Assay type: cell-based, Saccharomyces cerevisiae S288C
Procedure, shortened: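 S. cerevisiae S288C in YPD at 25 °C was exposed at log phase for 2 h to a growth-inhibiting, non-lethal concentration of the chemical. Poly(A) mRNA was reverse-transcribed with Cy3- or Cy5-dUTP and hybridized to a whole-genome yeast DNA chip (65 °C, >12 h). Values are fluorescence ratios versus untreated cells.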

## HgCl2 [(3)]
Yeast gene YNL074C, ratio to control without chemical substance, 2 h culture
  The level of expressed mRNA in the presence of chemical substance/: 1.8
Yeast gene YNL092W, ratio to control without chemical substance, 2 h culture
  The level of expressed mRNA in the presence of chemical substance/: 2.4
Yeast gene YNL093W
  The level of expressed mRNA in the presence of chemical substance/The level of expressed mRNA in the absence of chemical substance: 0.4
Yeast gene YNL115C, ratio to control without chemical substance, 2 h culture
  The level of expressed mRNA in the presence of chemical substance/: 1.6
Yeast gene YNL156C, ratio to control without chemical substance, 2 h culture
  The level of expressed mRNA in the presence of chemical substance/: 0.9
Yeast gene YNL234W, ratio to control without chemical substance, 2 h culture
  The level of expressed mRNA in the presence of chemical substance/: 0.6
Yeast gene YNL281W, ratio to control without chemical
  The level of expressed mRNA in the presence of chemical substance/: 2.0
Yeast gene YNL305C, ratio to control without chemical
  The level of expressed mRNA in the presence of chemical substance/: 2.7
Yeast gene YNL333W
  The level of expressed mRNA in the presence of chemical substance/The level of expressed mRNA in the absence of chemical substance: 1.7
Yeast gene YNR010W
  The level of expressed mRNA in the presence of chemical substance/The level of expressed mRNA in the absence of chemical substance: 0.5
Yeast gene YNR068C, ratio to control without chemical
  The level of expressed mRNA in the presence of chemical substance/: 2.3
Yeast gene YNR069C
  The level of expressed mRNA in the presence of chemical substance/The level of expressed mRNA in the absence of chemical substance: 0.7
Yeast gene YNR072W
  The level of expressed mRNA in the presence of chemical substance/in the absence of chemical substance: 0.5
Yeast gene YOL013C
  The level of expressed mRNA in the presence of chemical substance/The level of expressed mRNA in the absence of chemical substance: 1.0
Yeast gene YOL032W, ratio to control without chemical
  The level of expressed mRNA in the presence of chemical substance/: 2.0
Yeast gene YOL036W, ratio to control without chemical
  The level of expressed mRNA in the presence of chemical substance/: 1.3
Yeast gene YOL047C, ratio to control without chemical
  The level of expressed mRNA in the presence of chemical substance/: 1.1
Yeast gene YOL071W, ratio to control without chemical
  The level of expressed mRNA in the presence of chemical substance/: 1.7
Yeast gene YOL082W, ratio to control without chemical
  The level of expressed mRNA in the presence of chemical substance/: 1.6
Yeast gene YOL083W, ratio to control without chemical
  The level of expressed mRNA in the presence of chemical substance/: 1.2
Yeast gene YOL096C
  The level of expressed mRNA in the presence of chemical substance/in the absence of chemical substance: 1.2
Yeast gene YOL117W, ratio to control without chemical
  The level of expressed mRNA in the presence of chemical substance/: 0.5
Yeast gene YOL131W, ratio to control without chemical
  The level of expressed mRNA in the presence of chemical substance/: 0.6
Yeast gene YOL150C, ratio to control without chemical substance, 2 h culture
  The level of expressed mRNA in the presence of chemical substance/: 9.9
Yeast gene YOL162W, ratio to control without chemical
  The level of expressed mRNA in the presence of chemical substance/: 1.7
Yeast gene YOL164W
  The level of expressed mRNA in the presence of chemical substance/The level of expressed mRNA in the absence of chemical substance: 1.0
Yeast gene YOR019W, ratio to control without chemical
  The level of expressed mRNA in the presence of chemical substance/: 0.8
Yeast gene YOR036W
  The level of expressed mRNA in the presence of chemical substance/The level of expressed mRNA in the absence of chemical substance: 1.4
Yeast gene YOR117W
  The level of expressed mRNA in the presence of chemical substance/The level of expressed mRNA in the absence of chemical substance: 1.7
Yeast gene YOR124C
  The level of expressed mRNA in the presence of chemical substance/The level of expressed mRNA in the absence of chemical substance: 1.3
Yeast gene YOR132W
  The level of expressed mRNA in the presence of chemical substance/The level of expressed mRNA in the absence of chemical substance: 0.8
Yeast gene YOR157C
  The level of expressed mRNA in the presence of chemical substance/The level of expressed mRNA in the absence of chemical substance: 1.2
Yeast gene YOR180C
  The level of expressed mRNA in the presence of chemical substance/in the absence of chemical substance: 1.0
Yeast gene YOR181W
  The level of expressed mRNA in the presence of chemical substance/The level of expressed mRNA in the absence of chemical substance: 1.1
Yeast gene YOR185C
  The level of expressed mRNA in the presence of chemical substance/The level of expressed mRNA in the absence of chemical substance: 1.9
Yeast gene YOR197W, ratio to control without chemical
  The level of expressed mRNA in the presence of chemical substance/: 1.1
Yeast gene YOR198C
  The level of expressed mRNA in the presence of chemical substance/The level of expressed mRNA in the absence of chemical substance: 1.4
Yeast gene YOR259C
  The level of expressed mRNA in the presence of chemical substance/The level of expressed mRNA in the absence of chemical substance: 0.8
Yeast gene YOR261C
  The level of expressed mRNA in the presence of chemical substance/The level of expressed mRNA in the absence of chemical substance: 0.6
Yeast gene YOR288C
  The level of expressed mRNA in the presence of chemical substance/The level of expressed mRNA in the absence of chemical substance: 1.1
Yeast gene YOR355W
  The level of expressed mRNA in the presence of chemical substance/The level of expressed mRNA in the absence of chemical substance: 1.1
Yeast gene YOR363C
  The level of expressed mRNA in the presence of chemical substance/in the absence of chemical substance: 0.9
Yeast gene YOR383C
  The level of expressed mRNA in the presence of chemical substance/The level of expressed mRNA in the absence of chemical substance: 2.6
Yeast gene YPL087W, ratio to control without chemical
  The level of expressed mRNA in the presence of chemical substance/: 3.0
Yeast gene YPL089C
  The level of expressed mRNA in the presence of chemical substance/The level of expressed mRNA in the absence of chemical substance: 0.5
Yeast gene YPL109C
  The level of expressed mRNA in the presence of chemical substance/The level of expressed mRNA in the absence of chemical substance: 0.5
Yeast gene YPL149W
  The level of expressed mRNA in the presence of chemical substance/The level of expressed mRNA in the absence of chemical substance: 0.6
Yeast gene YPL154C
  The level of expressed mRNA in the presence of chemical substance/The level of expressed mRNA in the absence of chemical substance: 4.2
Yeast gene YPL196W, ratio to control without chemical
  The level of expressed mRNA in the presence of chemical substance/: 1.3
Yeast gene YPL206C, ratio to control without chemical
  The level of expressed mRNA in the presence of chemical substance/: 1.4
Yeast gene YPL222W, ratio to control without chemical
  The level of expressed mRNA in the presence of chemical substance/: 0.8
Yeast gene YPR023C, ratio to control without chemical
  The level of expressed mRNA in the presence of chemical substance/: 1.2
Yeast gene YPR103W
  The level of expressed mRNA in the presence of chemical substance/The level of expressed mRNA in the absence of chemical substance: 1.3
Yeast gene YPR108W
  The level of expressed mRNA in the presence of chemical substance/The level of expressed mRNA in the absence of chemical substance: 1.3
Yeast gene YPR151C, ratio to control without chemical
  The level of expressed mRNA in the presence of chemical substance/: 1.5
Yeast gene YPR184W
  The level of expressed mRNA in the presence of chemical substance/in the absence of chemical substance: 5.7
